Values of other authors in patent US20240082270A1 (priority 2021, published 2024).

System: live SARS-CoV-2

Structure (SMILES): CCCCCc1cc(O)c(C/C=C(\C)CCC=C(C)C)c(O)c1C(=O)O [CBGA, cannabigerolic acid]
- effectiveness against variants: equally effective

Structure (SMILES): C=C(C)[C@@H]1CCC(C)=C[C@H]1c1c(O)cc(CCCCC)c(C(=O)O)c1O [CBDA]
- effectiveness against variants: equally effective
